Measurements from PMC4118284 (Leukemia, 2012).
“And” between values parts separate entries of the source, which are not always exact repeats. Equal values may be shown once. Read-outs that look alike come from different tables or passages of the source.

Assays:
[1] = Plasma concentrations of midostaurin and metabolites
[2] = tested on: FLT3; conditions: cited from earlier work
[3] = clinical; conditions: human, plasma, intravenous, cycle 1, day 1; for AUC(0-t): AUC (0–24 h); for concentration at 24 h: C24 h
[4] = Concomitant (days 1-7 and 15-21), 50 mg BID, Induction cycle 1, day 1
[5] = Concomitant, 50 mg BID, First consolidation cycle, day 15.5
[6] = Concomitant, 50 mg BID, Induction cycle 1, Day 1 (+ 2 h)
[7] = Concomitant, 50 mg BID, Induction cycle 1, Day 1 (+ 4 h)
[8] = Concomitant, 50 mg BID, Induction cycle 1, day 2
[9] = Concomitant, 50 mg BID, Induction cycle 1, day 4
[10] = Concomitant, 50 mg BID, Induction cycle 1, day 15 (+ 2 h)
[11] = Concomitant, 50 mg BID, Induction cycle 1, day 15 (+ 4 h)
[12] = Sequential (days 8-21), 50 mg BID, Induction cycle 1, day 8
[13] = Sequential, 50 mg BID, First consolidation cycle, day 1.5
[14] = Sequential, 50 mg BID, First consolidation cycle, day 15.5
[15] = Sequential, 50 mg BID, First consolidation cycle, day 29.5
[16] = Sequential, 50 mg BID, Induction cycle 1, day 8 (+ 2 h)
[17] = Sequential, 50 mg BID, Induction cycle 1, day 8 (+ 4 h)
[18] = Sequential, 50 mg BID, Induction cycle 1, day 9
[19] = Sequential, 50 mg BID, Induction cycle 1, day 15
[20] = Sequential, 50 mg BID, Induction cycle 1, day 22.5
[21] = Sequential, 50 mg BID, Induction cycle 1, day 29.5
[22] = Mean ± SD, Concomitant midostaurin n = 13
[23] = Mean ± SD, Sequential midostaurin n = 13
[24] = Median, Concomitant midostaurin n = 13
[25] = Median, Sequential midostaurin n = 13
[26] = Concomitant midostaurin n = 13, cycle 1, day 1
[27] = Sequential midostaurin n = 13, cycle 1, day 1

In the case of CO[C@@H]1[C@H](N(C)C(=O)c2ccccc2)C[C@H]2O[C@]1(C)n1c3ccccc3c3c4c(c5c6ccccc6n2c5c31)C(=O)N[C@H]4O [CGP52421], the “Plasma concentration, Max” value [1, 4] is reported as “LLOQ”, the “Plasma concentration, Median” value [1, 4] is reported as “LLOQ” and the “Plasma concentration, Min” value [1, 4] is reported as “LLOQ”. For the same compound, the “Plasma concentration, Max” value [1, 5] was 810 ng/mL, the “Plasma concentration, Min” value [1, 5] was 810 ng/mL and the “Plasma concentration, individual values (n = 2; merged Median/Min/Max cell)” value ([1]; Concomitant, 50 mg BID, First consolidation cycle, day 29.5) was 809 ng/mL and 2990 ng/mL. For the same compound, the “Plasma concentration, Max” value [1, 6] was 812 ng/mL, the “Plasma concentration, Median” value [1, 6] was 170 ng/mL and the “Plasma concentration, Min” value [1, 6] was 52.9 ng/mL. The “Plasma concentration, Max” value [1, 7] was 209 ng/mL, the “Plasma concentration, Median” value [1, 7] was 137 ng/mL and the “Plasma concentration, Min” value [1, 7] was 115 ng/mL. The “Plasma concentration, Max” value [1, 8] was 460 ng/mL, the “Plasma concentration, Median” value [1, 8] was 361 ng/mL and the “Plasma concentration, Min” value [1, 8] was 228 ng/mL. The “Plasma concentration, Max” value [1, 9] was 1090 ng/mL, the “Plasma concentration, Median” value [1, 9] was 832 ng/mL and the “Plasma concentration, Min” value [1, 9] was 570 ng/mL. The “Plasma concentration, Max” value [1, 10] was 1920 ng/mL, the “Plasma concentration, Median” value [1, 10] was 1170 ng/mL and the “Plasma concentration, Min” value [1, 10] was 814 ng/mL. For the same compound, the “Plasma concentration, Max” value [1, 11] was 1860 ng/mL, the “Plasma concentration, Median” value [1, 11] was 1465 ng/mL and the “Plasma concentration, Min” value [1, 11] was 893 ng/mL. The “Plasma concentration, Max” value [1, 12] was “LLOQ”, the “Plasma concentration, Median” value [1, 12] was “LLOQ” and the “Plasma concentration, Min” value [1, 12] was “LLOQ”. The “Plasma concentration, Max” value [1, 13] was 3110 ng/mL, the “Plasma concentration, Median” value [1, 13] was 1740 ng/mL and the “Plasma concentration, Min” value [1, 13] was 835 ng/mL. The “Plasma concentration, Max” value [1, 14] was 4210 ng/mL, the “Plasma concentration, Median” value [1, 14] was 2685 ng/mL and the “Plasma concentration, Min” value [1, 14] was 1490 ng/mL. The “Plasma concentration, Max” value [1, 15] was 5320 ng/mL, the “Plasma concentration, Median” value [1, 15] was 2230 ng/mL and the “Plasma concentration, Min” value [1, 15] was 1440 ng/mL. The “Plasma concentration, Max” value [1, 16] was 194 ng/mL, the “Plasma concentration, Median” value [1, 16] was 70.8 ng/mL and the “Plasma concentration, Min” value [1, 16] was 35.9 ng/mL. For the same compound, the “Plasma concentration, Max” value [1, 17] was 207 ng/mL, the “Plasma concentration, Median” value [1, 17] was 113 ng/mL and the “Plasma concentration, Min” value [1, 17] was 58.2 ng/mL. For the same compound, the “Plasma concentration, Max” value [1, 18] was 414 ng/mL, the “Plasma concentration, Median” value [1, 18] was 293 ng/mL and the “Plasma concentration, Min” value [1, 18] was 145 ng/mL. The “Plasma concentration, Max” value [1, 19] was 1670 ng/mL, the “Plasma concentration, Median” value [1, 19] was 1460 ng/mL and the “Plasma concentration, Min” value [1, 19] was 903 ng/mL. The “Plasma concentration, Max” value [1, 20] was 3540 ng/mL, the “Plasma concentration, Median” value [1, 20] was 2800 ng/mL and the “Plasma concentration, Min” value [1, 20] was 1630 ng/mL. For the same compound, the “Plasma concentration, Max” value [1, 21] was 3330 ng/mL, the “Plasma concentration, Median” value [1, 21] was 1955 ng/mL and the “Plasma concentration, Min” value [1, 21] was 1350 ng/mL. For the same compound, the “Half-life (qualitative)” value ([1]; midostaurin 50 mg twice daily, stable levels between dosing treatment phases) was “long half-life” and the “Inhibition of FLT3 in vitro” value [2] was “capable of inhibiting FLT3 in vitro”.
For CN(C(=O)c1ccccc1)[C@@H]1C[C@H]2O[C@@](C)([C@@H]1O)n1c3ccccc3c3c4c(c5c6ccccc6n2c5c31)C(=O)NC4 [CGP62221], the “Inhibition of FLT3 in vitro” value [2] is given as “capable of inhibiting FLT3 in vitro”.
In the case of Nc1ccn([C@@H]2O[C@H](CO)[C@@H](O)[C@@H]2O)c(=O)n1 [cytarabine], the “Pharmacokinetic interaction with midostaurin” value (data not shown) is reported as “No interaction”.
Compound COc1cccc2c1C(=O)c1c(O)c3c(c(O)c1C2=O)C[C@@](O)(C(C)=O)C[C@@H]3O[C@H]1C[C@H](N)[C@H](O)[C@H](C)O1 [daunorubicin] has an AUC(0-t) [3, 22] of 373 ng·h/mL, an AUC(0-t) [3, 23] of 267 ng·h/mL and an AUC(0-t) [3, 24] of 189 ng·h/mL. It also gave an AUC(0-t) [3, 25] of 159 ng·h/mL, a concentration at 24 h [3, 22] of 17.4 ng/mL and a concentration at 24 h [3, 24] of 17.4 ng/mL. It also gave a Cmax [3, 22] of 98 ng/mL, a Cmax [3, 23] of 229 ng/mL and a Cmax [3, 24] of 89 ng/mL. For the same compound, the Cmax [3, 25] was 76 ng/mL, the Tmax [3, 22] was 30 min and the Tmax [3, 23] was 36 min. For the same compound, the Tmax [3, 24] was 30 min, the Tmax [3, 25] was 30 min and the “CL, Mean ± SD” value [26] was 269 ± 130 L/h/m^2. For the same compound, the “CL, Median” value [26] was 283 L/h/m^2, the “Vz, Mean ± SD” value [26] was 717 ± 266 L/m^2 and the “Vz, Median” value [26] was 694 L/m^2. The “C24 h, Mean ± SD” value [27] was 0 ± 0 ng/mL, the “CL, Mean ± SD” value [27] was 330 ± 226 L/h/m^2 and the “CL, Median” value [27] was 270 L/h/m^2. The “Vz, Mean ± SD” value [27] was 946 ± 696 L/m^2, the “Vz, Median” value [27] was 775 L/m^2 and the “C24 h, Median” value (Sequential midostaurin n = 13, cycle 1, day 1, LLOQ is 5 ng/mL) was “LLOQ”. For the same compound, the “Effect of midostaurin on clearance” value (midostaurin 50 mg twice daily) was “does not seem to be affected” and the “C24 h, Concomitant/sequential midostaurin” value (ratio, cycle 1, day 1) was 17.4/LLOQ.
